# “Also recorded” adds a separate entry of the source.
# How the values were obtained:
# [1] = system: HAVSMC; experiment: Actin cytoskeleton staining (F-actin) in HAVSMC; assay type: cell-based, human
# Description: VSMC were grown on glass well slides (Lab-Tek, Nunc) under standard growth conditions. Cells were incubated at 37° C. for 1 hour in serum and additive deficient growth medium and the indicated treatment agents, after which the media was removed and the cells were fixed in 4% paraformaldehyde in PBS (pH 7.4, Fisher Scientific) for 15 minutes at room temperature. After washing with DPBS, cells were permeabilized for 5 minutes in 0.1% Triton X-100 in PBS and then blocked in M199E/2% BSA for 30 min at room temperature. Cells were stained for F-actin with 1 unit/200 μl medium/1% BSA of Oregon Green 488 phalloidin (Molecular Probes). Slides were imaged using an Olympus IX70 microscope and photographed at constant exposure and gain. In other experiments VSMC were plated on 24-well culture plates (Nunc, Denmark) in smooth muscle growth medium (50,000 cells/well) and weaned from serum and additives over 24 hours. Cell treatment was performed with the indicated agents in plain medium with 0.1% BSA for 5 minutes. Wells were processed as described above. Following staining with phalloidin cells were incubated in methanol for 30 minutes, samples aliquoted to 96-well black plates and fluorescence read at 520 nm (excitation 495 nm). Data was normalized to total protein. Results represent the mean±SD of at least three separate experiments.
# [2] = system: Rap1; experiment: Rap1 pulldown assay in platelets; assay type: cell-based, human; details: thrombin
# Description: Platelets were diluted to 5×10^8 platelets/mL in Tyrode's buffer and treated with various reagents for the indicated times. Immediately following treatment, platelets were pelleted at 13,000 g for 30 seconds at 4° C. and resuspended in ice-cold lysis buffer containing 20 mM HEPES (pH 7.5), 100 mM NaCl, 10 mM EGTA, 20 mM MgCl2, 8 mM α-glycerophosphate, 1% Triton X-100, 1 mM phenylmethylsulfonylfluoride, 40 mM NaF, 1 mM Na3VO4, 10 μg/mL aprotinin, and 10 μg/mL leupeptin. Lysates were centrifuged at 13,000 g for 5 minutes at 4° C. and the supernatants were incubated for 15 minutes on a tumbler at 4° C. with glutathione Sepharose 4B beads (Amersham) prebound with a GST-Ral GDS RBD fusion protein (kind gift of J. Silvio Gutkind, NIH, Bethesda, Md.). Bead complexes were washed by centrifugation at 6,000 g for 30 seconds at 4° C. followed by resuspension in 0.5 mL lysis buffer; 2 washes were performed for each sample. After the second wash, beads were resuspended in an equal volume of 2×SDS sample buffer and stored at −20° C. For Western analysis, bead-bound proteins in sample buffer were boiled for 10 minutes and subjected to electrophoresis on NuPAGE 10% Bis-Tris gels (Invitrogen, Carlsbad, Calif.), transferred to Immobilon-P PVDF membranes (Millipore, Billerica, Mass.), and blotted with rabbit polyclonal anti-Rapt (sc-65; Santa Cruz Biotechnology, Santa Cruz, Calif.).
# [3] = target: T1, cGK-I (Homo sapiens, UniProt Q13976); experiment: cGK in vitro kinase assay of platelet lysates; assay type: biochemical
# T1 construct: endogenous in cells; host or cells: washed human platelets, treated intact, then lysed
# T1 sequence (Q13976 1-686 isoform Q13976-2): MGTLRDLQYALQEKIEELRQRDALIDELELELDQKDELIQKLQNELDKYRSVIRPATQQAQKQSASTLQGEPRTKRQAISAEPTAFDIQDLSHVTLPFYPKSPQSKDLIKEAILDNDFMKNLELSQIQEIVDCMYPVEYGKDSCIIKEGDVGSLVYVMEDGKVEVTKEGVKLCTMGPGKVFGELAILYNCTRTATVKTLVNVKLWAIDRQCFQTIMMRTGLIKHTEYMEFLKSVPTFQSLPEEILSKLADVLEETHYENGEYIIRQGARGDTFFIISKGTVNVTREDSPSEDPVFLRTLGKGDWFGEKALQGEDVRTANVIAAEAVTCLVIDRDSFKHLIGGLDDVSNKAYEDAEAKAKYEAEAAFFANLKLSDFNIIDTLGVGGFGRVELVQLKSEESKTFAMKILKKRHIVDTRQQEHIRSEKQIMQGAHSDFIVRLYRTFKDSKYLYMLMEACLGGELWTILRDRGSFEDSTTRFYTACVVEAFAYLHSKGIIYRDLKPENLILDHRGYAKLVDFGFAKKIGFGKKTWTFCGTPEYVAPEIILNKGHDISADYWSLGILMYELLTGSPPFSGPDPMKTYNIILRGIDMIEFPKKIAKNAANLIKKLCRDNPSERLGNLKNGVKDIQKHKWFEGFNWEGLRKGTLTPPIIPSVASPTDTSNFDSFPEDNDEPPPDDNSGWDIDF
# Description: Platelets were washed as described above and resuspended in Tyrode's buffer (3×10^8 platelets/mL). Platelets were preincubated with TSP1 (2.2 nM) or Rp-8-pCPT-cGMP for 15 minutes prior to treatment with 8-Br-cGMP (100 μM) or NO (DEA/NO 10 μM) for 2 minutes. Treatment was stopped by placing the platelets on ice. Immediately following treatment, platelets were pelleted by centrifugation at 13,000×g at 4° C. for 15 seconds and resuspended in a lysis buffer containing 10 mM HEPES (pH 7.4), 1 mM EDTA, 1 mM 3-Isobutyl-1-methylxanthine, 125 mM KCl, 1 mM phenylmethysulfonylfluoride, 1 μg/ml aprotinin, and 1 μg/ml leupeptin. Resuspended platelets were sonicated on ice 3 times for 10 seconds each before centrifugation at 13,000×g for 5 minutes at 4° C. 100 μg lysate from each sample was incubated at 25° C. for 20 minutes with kinase buffer (150 μM Arg-Lys-Arg-Ser-Arg-Ala-Glu (SEQ ID NO: 17) peptide substrate (Bachem, King of Prussia, Pa.)), 10 mM HEPES pH 7.4, 35 mM β-glycerophosphate, 4 mM MgCl2, 5 μM Rp-8 pCPT-cAMPS, 0.5 mM EDTA, […] [γ-32P]ATPS (Sigma-Aldrich, St. Louis, Mo.)). Kinase assay reactions were terminated by spotting 50 μL of reaction mixture onto nitrocellulose. Nitrocellulose spots were washed 5 times each with 100 μL of 0.5% phosphoric acid before analysis with a scintillation counter.
substance,measurement,setting,value
TSP1: thrombospondin-1 prepared from human platelets,NO-induced actin disassembly,[1]; DEA/NO 10 μM,completely prevented actin disassembly by NO
same,disassembly of S1P-induced F actin by NO,"[1]; S1P 100 nM, DEA/NO 10 μM",attenuated
same,F-actin levels,"[1]; agent alone (TSP1 2.2 nM, S1P 100 nM)",slightly increased F-actin levels
same,Rap1 activation (GTP loading),[2],reversed the inhibition of Rap1 activation; also recorded: did not increase Rap1 activation
same,32P-incorporation into cGK-I selective peptide,[3]; activation via sGC using DEA/NO in intact platelets,prevented
same,32P incorporation into cGK-I selective peptide,"[3]; stimulated by 100 μM 8Br-cGMP, TSP1 2.2 nM",inhibited 32P incorporation

# — patent publication US8865672B2, “Prevention of tissue ischemia and related methods” (The United States of America, as represented by the …, priority 2006, dated 2014)
